A short description of data set [1]: Plasma levels after transdermal administration to hairless mice. It is filed as in vivo. As for the experimental part: Tested compounds (20% solution or suspension in 1 mL isopropanol) are administered transdermally to the skin of intact hairless mice. The plasma levels of the parent compounds are determined by HPLC.
The next data set concerns rats. The experiment in a line: Antipyretic activity, E. coli suspension as pyrogen. It is filed as in vivo. As to conditions: in °C (unit assumed). As for the experimental part:
Rats are administered with sterilized E. coli suspension as a pyrogen. Each group of rats are administered with a prodrug compounds or parent compounds at a dosage specified below. The prodrug compounds are administered either orally or transdermally. The parent compounds are administered orally.

Another data set concerns mice. The experiment in a line: Analgesic activity, acetic acid writhing. It is filed as in vivo. As to conditions: 30 min before acetic acid. Here is the method: The prodrug compounds are administered either transdermally or orally. The parent compounds are administered orally. The number of writhing that occurred when mice are administered the acetic acid solution are counted, and the rate of inhibition based on the control group which was not pretreated with any test compounds is calculated. […] The A group is the control group.
On the technique in general: In writhing tests, fewer writhes than in controls are read as antinociception.

The test system of data set [2] is human skin tissue. As to conditions: pH 7.4.
Data set [3] concerns Chinese white rabbits. Put plainly: Malassezia-induced lesions similar to psoriasis. Type of data set: in vivo, rabbit. As to conditions: 5% aqueous solution twice per day, 10 days after application. From the text: Heavy suspensions of Malassezia [Rosenberg, E. W., et al., Mycopathologia, 72, 147-154 (1980)] were applied to the shaved skin on the backs of the Chinese white rabbits (n=4×6) twice (at 7 am and 7 pm) per day for 2 weeks, lesions similar to psoriasis resulted.

The subject of data set [4] is Chinese white rabbits. Put plainly: Wound healing, scar area. Particulars: 5% aqueous solution applied to the nearby area of wounds, vs control rabbits. Type of data set: in vivo, rabbit. An excerpt:
25 Chinese white rabbits were divided into 5 groups and hairs on the back of rabbits were removed (5×5 cm^2).

Data set [5] is described as follows: Solubility in water / aqueous solubility of HPPs and parent drugs. As to conditions: medium not given.
The subject of data set [6] is human skin tissue. The experiment in a line: In vitro penetration rate through human skin, modified Franz cells. Particulars: Franz cell.
[7] abbreviates: transdermal, 20% in 1 mL isopropanol, hairless mice.

Like-named read-outs stand apart in the source and are kept apart here.

By inhibition is commonly meant the share of the control response that was lost under treatment.
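Throughout, for LD50 of HPP: acute toxicity in rats expressed as LD50, determined for both prodrugs and their parent compounds.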

`CC(=O)O.CCN(CC)CCOC(=O)Cc1cccc(C(=O)c2ccc(Br)cc2)c1N` [diethylaminoethyl 2-amino-3-(4-bromo-benzoyl)benzeneacetate.AcOH]: in data set [1] (mouse, in vivo), the “Peak plasma concentration of parent compound after prodrug compound” value was found to be 20 mg/L and the “t, time to peak plasma level of parent compound after prodrug compound” value (“t, time … after prodrug compound” for short) stood at 50 min. Also, in the data set with rat (rats), the “LD50 of HPP” value worked out at 1600 mg/kg. Further, in the data set on rats (100 mg/kg transdermally), the “body temperature, t = 0 min” value is recorded as 37.25 ± 0.06; the “body temperature, t = 90 min” value was 36.71 ± 0.05; the “body temperature, t = 180 min” value stood at 36.65 ± 0.08; the “body temperature, t = 270 min” value is given as 36.64 ± 0.07. In the data set with mice (100 mg/kg transdermally), the “% (rate of writhing inhibition)” value amounted to 62% and the “No. of Writhing” value came to 13.2. In addition, in the data set with human skin tissue [2], the “In vitro penetration rate (apparent flux), prodrug compounds” value amounted to 1100 μg/cm^2/h. Besides, the “lesions similar to psoriasis” value in the data set on Chinese white rabbits [3] is “the lesions were resolved”.

On to `CCN(CC)CCOC(=O)Cc1cc(C)c(C(=O)c2ccc(Cl)cc2)n1C.Cl` [diethylaminoethyl 5-(4-Chlorobenzoyl)-1,4-dimethyl-1H-pyrrole-2-acetate.HCl], for which the average scar area result in the data set with Chinese white rabbits [4] is recorded as “only a third of that of the control rabbits”.

For `CC(=O)O.CCN(CC)CCOC(=O)C(C)c1c(C)n(C(=O)c2ccc(Cl)cc2)c2ccc(OC)cc12` (stereo not drawn) [diethylaminoethyl α-methyl-(p-chlorobenzoyl)-5-methoxy-2-methylindole 3-acetate.AcOH], the “Solubility of HPP” value in data set [5] is above 450 mg/mL. In data set [1] (setting [7]), the “Peak plasma concentration of parent compound after prodrug compound” value came out at 2000 mg/L and the “t, time … after prodrug compound” value stood at 50 min. In addition, in the data set on human skin tissue [6] (20% solution in 0.2 M phosphate buffer pH 7.4, human skin), the “In vitro penetration rate (apparent flux), prodrug compounds” value came out at 4000 μg/cm^2/h. Moreover, in the data set with rats (100 mg/kg transdermally), the “body temperature, t = 0 min” value is reported as 37.35 ± 0.06; the “body temperature, t = 90 min” value is on record as 36.71 ± 0.05; the “body temperature, t = 180 min” value is 36.60 ± 0.08; the “body temperature, t = 270 min” value was determined as 36.59 ± 0.07. Besides, in the data set on mice (100 mg/kg transdermally), the “% (rate of writhing inhibition)” value is 61% and the “No. of Writhing” value is 13.8.

As for `C=CCOc1ccc(CC(=O)OCCN(CC)CC)cc1Cl.Cl` [diethylaminoethyl 3-chloro-4-(2-propenyloxy)benzeneacetate.HCl], the average scar area entry with Chinese white rabbits [4] is “only a third of that of the control rabbits”.

`CC(C)Cc1ccc(C(C)C(=O)OCC2CCCNC2)cc1.Cl` (centres unmarked) [3-piperidinemethyl 2-(ρ-isobutylphenyl) propionate.HCl]: in the data set on Chinese white rabbits [4], the average scar area entry is given as “only a third of that of the control rabbits”.

For the compound `CC(=O)O.CCc1cccc2c3c([nH]c12)C(CC)(CC(=O)OCCN(CC)CC)OCC3` (centres unmarked) [diethylaminoethyl 1,8-diethyl-1,3,4,9-tetrahydropyrano-[3,4-b]indole-1-acetate.AcOH], in data set [1] (mouse, in vivo), the “Peak plasma concentration of parent compound after prodrug compound” value turned out to be 20 mg/L and the “t, time … after prodrug compound” value was 50 min. For the same compound, in the data set on rat (rats), the “LD50 of HPP” value amounted to 600 mg/kg. Besides, in the data set on rats (100 mg/kg transdermally), the “body temperature, t = 0 min” value is recorded as 37.23 ± 0.06; the “body temperature, t = 90 min” value was determined as 36.65 ± 0.06; the “body temperature, t = 180 min” value is 36.58 ± 0.08; the “body temperature, t = 270 min” value was 36.60 ± 0.07. Moreover, in the data set on mice (100 mg/kg transdermally), the “% (rate of writhing inhibition)” value stood at 60% and the “No. of Writhing” value worked out at 14.0. Besides, in the data set on human skin tissue [2], the “In vitro penetration rate (apparent flux), prodrug compounds” value was 1300 μg/cm^2/h. Also, the “lesions similar to psoriasis” value in the data set with Chinese white rabbits [3] is “the lesions were resolved”.

Take `CCN(CC)CCOC(=O)COC(=O)Cc1c(C)n(C(=O)c2ccc(Cl)cc2)c2ccc(OC)cc12.Cl` [diethylaminoethyl 1-(4-chlorobenzoyl-5-methoxy-2-methyl-1H-indole-3-acetoxyacetate.HCl]: the average scar area result with Chinese white rabbits [4] is given as “only a third of that of the control rabbits”.

Regarding `CC(C(=O)O)c1cccc(C(=O)c2ccccc2)c1` (centres unmarked) [Ketoprofen, 2-(3-benzoylphenyl) propionic acid, reference compound], the “t, time to peak plasma level after parent compound” value in data set [1] (parent compound administered (time when taken orally)) is 1 to 2 h. The “Peak plasma concentration after parent compound” value in data set [1] (parent compound administered, hairless mice) turned out to be 1 mg/L. Besides, the “In vitro penetration rate (apparent flux), parent compounds” value in the data set with human skin tissue [6] (20% suspension in 0.2 M phosphate buffer pH 7.4, human skin, detection limit 1) is below 1 μg/cm^2/h. In addition, in the data set on rats (50 mg/kg orally), the “body temperature, t = 0 min” value was 37.25 ± 0.06; the “body temperature, t = 90 min” value was 36.81 ± 0.05; the “body temperature, t = 180 min” value is listed as 36.82 ± 0.08; the “body temperature, t = 270 min” value was 36.78 ± 0.07. Besides, the “No. of Writhing” value in the data set on mice (50 mg/kg orally) came to 18.1. Moreover, the inhibition at 50 mg/kg in the data set on mice (Mus musculus, po, 50 mg/kg orally, read-out: % (rate of writhing inhibition)) turned out to be 48%.

With `CC(=O)O.CCN(CC)CCOC(=O)COC(=O)Cc1c(C)n(C(=O)c2ccc(Cl)cc2)c2ccc(OC)cc12` [diethylaminoethyl 1-(4-chlorobenzoyl-5-methoxy-2-methyl-1H-indole-3-acetoxyacetate.AcOH], in data set [1] (mouse, in vivo), the “Peak plasma concentration of parent compound after prodrug compound” value is 20 mg/L and the “t, time … after prodrug compound” value is 50 min. Also, the “LD50 of HPP” value in the data set on rat (rat, in vivo) was determined as 1200 mg/kg. Also, in the data set with rats (100 mg/kg transdermally), the “body temperature, t = 0 min” value is 37.21 ± 0.06; the “body temperature, t = 90 min” value is 36.75 ± 0.05; the “body temperature, t = 180 min” value came out at 36.62 ± 0.08; the “body temperature, t = 270 min” value is recorded as 36.58 ± 0.07. In the data set on mice (100 mg/kg transdermally), the “% (rate of writhing inhibition)” value was found to be 55% and the “No. of Writhing” value came out at 15.6. Besides, the “In vitro penetration rate (apparent flux), prodrug compounds” value in the data set on human skin tissue [2] stood at 1200 μg/cm^2/h. The “lesions similar to psoriasis” value with Chinese white rabbits [3] was “the lesions were resolved”.

As for `CCN(CC)CCOC(=O)Cc1sc(-c2ccccc2)nc1-c1ccc(Cl)cc1.Cl` [diethylaminoethyl 4-(4-chlorophenyl)-2-phenyl-5-thiazoleacetate.HCl], the average scar area entry with Chinese white rabbits [4] is “only a third of that of the control rabbits”.

`CCc1cccc2c3c([nH]c12)C(CC)(CC(=O)OCCN(CC)CC)OCC3.Cl` (centres unmarked) [diethylaminoethyl 1,8-diethyl-1,3,4,9-tetrahydropyrano-[3,4-b]indole-1-acetate.HCl]: in the data set with Chinese white rabbits [4], the average scar area result is on record as “only a third of that of the control rabbits”.

Consider `CCN(CC)CCOC(=O)Cc1cccc(C(=O)c2ccc(Br)cc2)c1N.Cl` [diethylaminoethyl 2-amino-3-(4-bromo-benzoyl)benzeneacetate.HCl], for which, in the data set with Chinese white rabbits [4], the average scar area result was “only a third of that of the control rabbits”.

Turning to `CCN(CC)CCOC(=O)Cc1ccc(C(=O)c2ccc(C)cc2)n1C.Cl` [diethylaminoethyl 1-methyl-5-(4-methylbenzoyl)-1H-pyrrole-2-acetate.HCl], in the data set with Chinese white rabbits [4], the average scar area entry is given as “only a third of that of the control rabbits”.

Consider `CCN(CC)CCOC(=O)Cc1cn(-c2ccccc2)nc1-c1ccc(Cl)cc1.Cl` [diethylaminoethyl 3-(4-chlorophenyl)-1-phenyl-1H-pyrazole-4-acetate.HCl], for which the average scar area result in the data set on Chinese white rabbits [4] is listed as “only a third of that of the control rabbits”.

Consider `CC(=O)O.CCN(CC)CCOC(=O)Cc1sc(-c2ccccc2)nc1-c1ccc(Cl)cc1` [diethylaminoethyl 4-(4-chlorophenyl)-2-phenyl-5-thiazoleacetate.AcOH], for which, in data set [1] (mouse, in vivo), the “Peak plasma concentration of parent compound after prodrug compound” value worked out at 20 mg/L and the “t, time … after prodrug compound” value came out at 50 min. Besides, the “LD50 of HPP” value with rat (rats) was found to be 1200 mg/kg. Besides, in the data set with rats (100 mg/kg transdermally), the “body temperature, t = 0 min” value is recorded as 37.23 ± 0.06; the “body temperature, t = 90 min” value is 36.81 ± 0.05; the “body temperature, t = 180 min” value stood at 36.75 ± 0.08; the “body temperature, t = 270 min” value came out at 36.71 ± 0.07. For the same compound, in the data set with mice (100 mg/kg transdermally), the “% (rate of writhing inhibition)” value turned out to be 54% and the “No. of Writhing” value stood at 16.1. In addition, the “In vitro penetration rate (apparent flux), prodrug compounds” value in the data set on human skin tissue [2] is recorded as 1300 μg/cm^2/h. Also, the “lesions similar to psoriasis” value in the data set with Chinese white rabbits [3] was “the lesions were resolved”.

Turning to `C=CCOc1ccc(CC(=O)OCCN(CC)CC)cc1Cl.CC(=O)O` [diethylaminoethyl 3-chloro-4-(2-propenyloxy)benzeneacetate.AcOH], in data set [1] (mouse, in vivo), the “Peak plasma concentration of parent compound after prodrug compound” value came to 20 mg/L and the “t, time … after prodrug compound” value is on record as 50 min. The “LD50 of HPP” value with rat (rats) came out at 3000 mg/kg. In the data set on rats (100 mg/kg transdermally), the “body temperature, t = 0 min” value was 37.23 ± 0.07; the “body temperature, t = 90 min” value is recorded as 36.80 ± 0.06; the “body temperature, t = 180 min” value is on record as 36.70 ± 0.05; the “body temperature, t = 270 min” value is given as 36.67 ± 0.08. In the data set on mice (100 mg/kg transdermally), the “% (rate of writhing inhibition)” value worked out at 55% and the “No. of Writhing” value was 15.7. For the same compound, the “In vitro penetration rate (apparent flux), prodrug compounds” value in the data set on human skin tissue [2] came to 1000 μg/cm^2/h. In addition, the “lesions similar to psoriasis” value in the data set on Chinese white rabbits [3] is given as “the lesions were resolved”.

(Values after patent publication US20210353579A1, “HIGH PENETRATION COMPOSITIONS AND USES THEREOF” (Techfields Pharma Co., Ltd., priority 2006, published 2021).)
